pIC50: −log10 of the molar value. Like-named read-outs stand apart in the source and are kept apart here.
Columns and labels:
VEGFR 1 = VEGFR 1 (Homo sapiens, UniProt P17948); experiment: Compound A kinase selectivity profile; type: biochemical
VEGFR 2 = VEGFR 2 (Homo sapiens, UniProt P35968); experiment: Compound A kinase selectivity profile; type: biochemical
VEGFR 3 = VEGFR 3 (Homo sapiens, UniProt P35916); experiment: Compound A kinase selectivity profile; type: biochemical
FGFR1 = FGFR1 (Homo sapiens, UniProt P11362); experiment: Compound A kinase selectivity profile; type: biochemical
CSF1R = CSF1R (Homo sapiens, UniProt P07333); experiment: Compound A kinase selectivity profile; type: biochemical
TrkB = TrkB (Homo sapiens, UniProt Q16620); experiment: Compound A kinase selectivity profile; type: biochemical
FLT3 = target: T1, FLT3 (Homo sapiens, UniProt P36888); experiment: Compound A kinase selectivity profile; type: biochemical
T1 sequence (P36888 27-993): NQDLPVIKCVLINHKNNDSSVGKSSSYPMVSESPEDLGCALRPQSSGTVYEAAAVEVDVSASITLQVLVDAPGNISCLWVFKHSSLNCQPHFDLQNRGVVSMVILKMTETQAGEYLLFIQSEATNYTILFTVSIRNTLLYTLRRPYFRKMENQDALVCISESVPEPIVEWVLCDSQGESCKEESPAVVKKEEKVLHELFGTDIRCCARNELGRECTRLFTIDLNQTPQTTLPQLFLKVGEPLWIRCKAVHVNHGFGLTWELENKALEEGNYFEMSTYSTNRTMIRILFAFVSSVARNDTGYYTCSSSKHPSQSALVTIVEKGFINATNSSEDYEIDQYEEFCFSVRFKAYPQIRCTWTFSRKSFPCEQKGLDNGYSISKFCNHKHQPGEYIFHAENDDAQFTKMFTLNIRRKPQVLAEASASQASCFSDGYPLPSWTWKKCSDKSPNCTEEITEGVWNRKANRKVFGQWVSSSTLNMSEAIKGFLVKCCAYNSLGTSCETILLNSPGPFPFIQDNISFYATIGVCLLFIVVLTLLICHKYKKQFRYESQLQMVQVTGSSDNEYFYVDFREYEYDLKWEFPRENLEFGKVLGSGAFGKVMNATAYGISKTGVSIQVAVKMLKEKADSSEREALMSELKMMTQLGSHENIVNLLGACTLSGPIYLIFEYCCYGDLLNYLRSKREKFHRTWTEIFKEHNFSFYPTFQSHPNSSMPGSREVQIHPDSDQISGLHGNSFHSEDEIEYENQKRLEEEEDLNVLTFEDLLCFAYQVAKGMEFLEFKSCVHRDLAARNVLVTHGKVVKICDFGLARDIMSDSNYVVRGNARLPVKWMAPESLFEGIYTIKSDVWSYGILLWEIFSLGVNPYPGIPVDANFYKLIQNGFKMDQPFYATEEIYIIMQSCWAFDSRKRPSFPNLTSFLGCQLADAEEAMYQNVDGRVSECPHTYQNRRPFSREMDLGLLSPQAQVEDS

278 other kinases = experiment: Compound A kinase selectivity profile; type: biochemical
Fms kinase = target: T2, Fms kinase (Homo sapiens, UniProt P07333); experiment: CSF1R inhibition, [γ-33P-ATP] incorporation assay (Eurofins); type: biochemical
T2 construct: purchased Eurofins Pharma Discovery Services UK Ltd
Experimental: Inhibition of compound A on Fins was determined using […] incorporation assay carried by Eurofins Pharma Discovery Services UK Ltd. Fms kinase was incubated with 8 mM MOPS (3-(N-Morpholino)propanesulfonic acid sodium) pH 7.0, 0.2 mM EDTA ((Ethylenedinitrilo)tetraacetic acid disodium salt), 250 μM […] (a peptide), 10 mM MgAcetate and [γ-33P-ATP] (specific activity approx. 500 cpm/pmol, concentration as required). The reaction was initiated by the addition of the MgATP mix. After incubation for 40 minutes at room temperature, the reaction was stopped by the addition of 3% phosphoric acid solution. 10 μL of the reaction was then spotted onto a P30 filtermat and washed three times for 5 minutes in 75 mM phosphoric acid and once in methanol prior to drying and scintillation counting.

[1] = Phase 1 clinical study: toxicity, DLT and MTD assessments; type: in vivo, human; settings: doses of 50-350 mg QD and 125-150 mg BID; up to 350 mg QD (formulation 2)
Experimental: During the dose-escalation phase, patients were given a single dose of compound A and monitored for adverse events (AEs) for 7 days. If no clinically significant toxicities were observed, patients could enter the 28-day dose-limiting toxicity (DLT) observation phase where they received compound A continuously for 28 days. DLTs were assessed at the end of the 28-day period. If no patients experienced a DLT during the 28-day period, the dose was escalated (FIG. 1). After the completion of the DLT observation phase, patients could continue compound A treatment at their current dose (if they were judged by the investigator to be benefiting from the treatment) until any of the withdrawal criteria (investigator's decision that withdrawal was in the patient's best interest, intolerable toxicity, disease progression) were met.
The study used a modified Fibonacci 3+3 dose-escalation design with at least three evaluable patients treated with each dose. In total, 12 dose cohorts were assessed (FIG. 1). […] If […] patients experienced a DLT, the MTD was considered exceeded and the previous lower dose would be re-assessed to determine the MTD. […]
Safety and tolerability were assessed in all patients who received at least one dose of study medication throughout the study. AEs were recorded throughout the study. […]

advanced solid tumors = experiment: Phase 1 clinical study: tumor response (RECIST Version 1.0); type: in vivo, human; settings: total 77 patients
Experimental: Patients with neuroendocrine tumors (NETs) were enrolled with priority as preliminary efficacy was shown in these tumor types in the dose-escalation stage.
Tumor response (an exploratory endpoint) was assessed according to Response Evaluation Criteria in Solid Tumors (RECIST) Version 1.0 and measured at baseline, and at the end of every treatment cycle in the first 4 cycles and every other cycle thereafter. Patients with an initial assessment of complete response (CR) or partial response (PR) had to have the result confirmed by a repeat tumor assessment at least 4 weeks later. Calculations of the following parameters were made: objective response rate (ORR) (CR+PR); stable disease (SD) defined as ≥1 assessment of SD at least 6 weeks after study entry; disease control rate (DCR) (CR+PR+SD). Time to response (TTR), duration of response (DoR), and progression-free survival (PFS) were assessed in the subgroup of patients with NET.

NET = settings: cited from earlier work; for ORR: phase 3 trial

T2 sequence (P07333 20-972): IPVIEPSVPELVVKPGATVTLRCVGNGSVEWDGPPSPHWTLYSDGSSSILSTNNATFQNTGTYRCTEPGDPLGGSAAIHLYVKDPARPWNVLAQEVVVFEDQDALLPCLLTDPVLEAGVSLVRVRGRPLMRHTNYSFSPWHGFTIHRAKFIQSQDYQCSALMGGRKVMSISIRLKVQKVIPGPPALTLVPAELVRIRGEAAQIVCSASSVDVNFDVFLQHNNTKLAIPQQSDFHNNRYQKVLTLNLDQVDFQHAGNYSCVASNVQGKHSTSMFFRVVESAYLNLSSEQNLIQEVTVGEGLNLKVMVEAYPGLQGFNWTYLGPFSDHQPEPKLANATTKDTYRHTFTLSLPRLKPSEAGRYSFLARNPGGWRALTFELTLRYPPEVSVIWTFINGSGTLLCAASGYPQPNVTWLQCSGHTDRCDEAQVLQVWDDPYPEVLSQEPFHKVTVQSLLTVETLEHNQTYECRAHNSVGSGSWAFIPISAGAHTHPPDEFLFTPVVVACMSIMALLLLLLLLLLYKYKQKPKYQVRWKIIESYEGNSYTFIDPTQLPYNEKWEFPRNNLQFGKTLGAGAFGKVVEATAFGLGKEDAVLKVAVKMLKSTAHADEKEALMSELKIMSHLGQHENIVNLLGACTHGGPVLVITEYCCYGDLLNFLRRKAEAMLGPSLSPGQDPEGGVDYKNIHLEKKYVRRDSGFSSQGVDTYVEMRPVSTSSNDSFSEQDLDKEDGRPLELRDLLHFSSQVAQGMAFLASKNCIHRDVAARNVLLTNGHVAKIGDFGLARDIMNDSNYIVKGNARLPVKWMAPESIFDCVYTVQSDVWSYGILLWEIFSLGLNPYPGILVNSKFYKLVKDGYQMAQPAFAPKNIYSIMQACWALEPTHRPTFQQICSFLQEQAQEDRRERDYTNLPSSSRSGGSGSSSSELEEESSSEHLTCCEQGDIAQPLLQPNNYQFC
Chain of VEGFR 2 (P35968 20-1356): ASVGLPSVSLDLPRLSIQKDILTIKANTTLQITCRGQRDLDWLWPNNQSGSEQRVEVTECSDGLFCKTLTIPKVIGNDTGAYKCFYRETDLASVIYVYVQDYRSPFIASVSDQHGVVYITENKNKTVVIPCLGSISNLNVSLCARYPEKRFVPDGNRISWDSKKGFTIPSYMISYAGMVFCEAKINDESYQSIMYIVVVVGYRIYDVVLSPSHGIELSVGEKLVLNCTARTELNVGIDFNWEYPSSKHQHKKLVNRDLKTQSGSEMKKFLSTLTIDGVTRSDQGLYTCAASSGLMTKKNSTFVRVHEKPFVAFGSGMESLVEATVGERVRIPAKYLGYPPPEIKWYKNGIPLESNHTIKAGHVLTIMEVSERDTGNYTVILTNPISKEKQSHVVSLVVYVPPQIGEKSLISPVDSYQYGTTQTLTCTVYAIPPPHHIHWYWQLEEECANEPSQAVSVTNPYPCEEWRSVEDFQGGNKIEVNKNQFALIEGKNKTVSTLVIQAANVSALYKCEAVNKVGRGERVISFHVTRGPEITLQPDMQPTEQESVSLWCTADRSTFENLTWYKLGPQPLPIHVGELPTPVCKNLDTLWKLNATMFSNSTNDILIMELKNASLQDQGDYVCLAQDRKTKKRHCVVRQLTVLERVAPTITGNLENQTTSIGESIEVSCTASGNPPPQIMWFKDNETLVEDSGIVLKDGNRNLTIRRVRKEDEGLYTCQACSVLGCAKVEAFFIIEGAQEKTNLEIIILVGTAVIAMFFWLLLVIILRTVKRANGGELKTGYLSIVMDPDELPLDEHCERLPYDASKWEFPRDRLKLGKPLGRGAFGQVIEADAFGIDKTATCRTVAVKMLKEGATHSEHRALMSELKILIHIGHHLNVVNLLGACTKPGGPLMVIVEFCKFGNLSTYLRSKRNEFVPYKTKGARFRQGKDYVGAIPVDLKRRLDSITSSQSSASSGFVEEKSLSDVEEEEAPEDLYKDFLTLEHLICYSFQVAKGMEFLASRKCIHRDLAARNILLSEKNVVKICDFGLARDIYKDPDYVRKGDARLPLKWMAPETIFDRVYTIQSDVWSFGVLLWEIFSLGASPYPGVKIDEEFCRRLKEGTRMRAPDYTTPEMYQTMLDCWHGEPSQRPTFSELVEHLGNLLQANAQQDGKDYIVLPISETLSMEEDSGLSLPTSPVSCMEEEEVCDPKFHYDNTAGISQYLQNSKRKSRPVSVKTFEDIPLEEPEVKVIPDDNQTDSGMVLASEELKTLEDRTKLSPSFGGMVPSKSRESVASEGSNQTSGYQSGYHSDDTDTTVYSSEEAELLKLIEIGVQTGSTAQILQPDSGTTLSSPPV
Chain of VEGFR 3 (P35916 25-1363): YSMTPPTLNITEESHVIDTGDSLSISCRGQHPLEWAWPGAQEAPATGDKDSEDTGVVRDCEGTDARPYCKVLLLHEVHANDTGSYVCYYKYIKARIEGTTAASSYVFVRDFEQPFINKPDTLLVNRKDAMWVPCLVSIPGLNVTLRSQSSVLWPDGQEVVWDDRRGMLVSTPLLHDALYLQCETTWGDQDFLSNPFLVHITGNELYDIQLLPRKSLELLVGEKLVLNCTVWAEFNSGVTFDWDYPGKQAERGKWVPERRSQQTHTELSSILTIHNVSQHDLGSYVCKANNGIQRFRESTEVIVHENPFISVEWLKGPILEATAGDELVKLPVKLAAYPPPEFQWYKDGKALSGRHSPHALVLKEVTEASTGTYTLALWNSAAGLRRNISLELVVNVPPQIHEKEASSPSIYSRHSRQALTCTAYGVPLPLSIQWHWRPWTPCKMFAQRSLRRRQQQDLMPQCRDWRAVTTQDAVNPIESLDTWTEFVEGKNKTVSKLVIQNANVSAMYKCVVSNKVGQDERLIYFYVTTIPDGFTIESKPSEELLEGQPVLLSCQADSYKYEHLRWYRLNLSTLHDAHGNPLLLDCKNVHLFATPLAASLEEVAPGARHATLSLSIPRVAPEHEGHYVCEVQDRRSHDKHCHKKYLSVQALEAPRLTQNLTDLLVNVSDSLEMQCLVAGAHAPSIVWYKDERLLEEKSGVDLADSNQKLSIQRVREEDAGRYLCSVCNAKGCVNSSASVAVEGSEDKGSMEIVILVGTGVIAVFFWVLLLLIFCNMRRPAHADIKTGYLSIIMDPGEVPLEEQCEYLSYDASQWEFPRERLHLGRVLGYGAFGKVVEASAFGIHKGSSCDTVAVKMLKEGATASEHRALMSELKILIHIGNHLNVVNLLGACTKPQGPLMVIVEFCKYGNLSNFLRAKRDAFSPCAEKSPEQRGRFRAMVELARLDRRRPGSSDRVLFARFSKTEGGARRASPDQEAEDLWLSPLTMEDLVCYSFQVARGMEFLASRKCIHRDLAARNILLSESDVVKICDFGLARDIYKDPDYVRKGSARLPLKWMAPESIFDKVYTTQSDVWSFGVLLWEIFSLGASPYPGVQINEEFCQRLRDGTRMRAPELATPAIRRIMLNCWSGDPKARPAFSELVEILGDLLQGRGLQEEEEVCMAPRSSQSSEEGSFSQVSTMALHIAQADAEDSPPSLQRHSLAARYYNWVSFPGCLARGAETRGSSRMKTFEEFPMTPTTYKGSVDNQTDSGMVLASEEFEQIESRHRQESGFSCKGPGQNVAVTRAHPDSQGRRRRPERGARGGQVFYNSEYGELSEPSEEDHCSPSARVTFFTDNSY
Chain of VEGFR 1 (P17948 27-1338): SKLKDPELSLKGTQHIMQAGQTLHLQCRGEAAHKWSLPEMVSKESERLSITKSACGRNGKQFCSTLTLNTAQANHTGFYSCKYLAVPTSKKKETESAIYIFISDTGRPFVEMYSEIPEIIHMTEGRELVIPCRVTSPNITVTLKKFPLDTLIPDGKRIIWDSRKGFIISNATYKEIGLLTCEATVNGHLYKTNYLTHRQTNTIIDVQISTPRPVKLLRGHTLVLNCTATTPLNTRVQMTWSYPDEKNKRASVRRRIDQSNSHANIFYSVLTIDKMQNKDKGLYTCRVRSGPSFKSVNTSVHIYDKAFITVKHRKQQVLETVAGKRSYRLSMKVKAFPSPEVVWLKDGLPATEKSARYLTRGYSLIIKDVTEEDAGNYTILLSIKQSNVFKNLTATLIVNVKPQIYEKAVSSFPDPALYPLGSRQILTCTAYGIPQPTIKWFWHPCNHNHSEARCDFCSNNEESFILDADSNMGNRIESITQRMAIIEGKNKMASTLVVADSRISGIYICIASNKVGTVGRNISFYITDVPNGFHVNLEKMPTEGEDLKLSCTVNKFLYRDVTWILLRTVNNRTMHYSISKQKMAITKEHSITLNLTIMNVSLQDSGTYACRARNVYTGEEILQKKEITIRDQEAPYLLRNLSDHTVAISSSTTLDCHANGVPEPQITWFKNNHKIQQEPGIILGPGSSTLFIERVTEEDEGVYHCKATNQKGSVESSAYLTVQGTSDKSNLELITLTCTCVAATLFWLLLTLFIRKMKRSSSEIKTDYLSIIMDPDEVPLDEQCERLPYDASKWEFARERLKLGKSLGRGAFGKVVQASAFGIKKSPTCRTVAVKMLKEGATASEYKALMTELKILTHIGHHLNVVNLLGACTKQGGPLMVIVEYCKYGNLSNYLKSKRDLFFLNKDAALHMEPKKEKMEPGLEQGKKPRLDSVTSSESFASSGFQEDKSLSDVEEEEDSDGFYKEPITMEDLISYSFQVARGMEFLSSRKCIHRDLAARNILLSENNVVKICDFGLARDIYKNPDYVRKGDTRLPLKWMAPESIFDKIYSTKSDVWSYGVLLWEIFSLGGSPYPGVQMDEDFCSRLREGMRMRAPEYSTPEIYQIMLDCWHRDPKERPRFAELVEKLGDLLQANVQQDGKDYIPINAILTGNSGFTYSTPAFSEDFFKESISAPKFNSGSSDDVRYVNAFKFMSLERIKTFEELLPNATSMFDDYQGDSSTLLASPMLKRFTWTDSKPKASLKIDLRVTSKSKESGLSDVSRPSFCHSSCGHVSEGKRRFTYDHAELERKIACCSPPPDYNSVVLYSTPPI
Chain of CSF1R (P07333 20-972): as the sequence (P07333 20-972) above

Q: With Cc1cc2cc(Oc3ccnc(Nc4cccc(CS(=O)(=O)NCCN(C)C)c4)n3)ccc2[nH]1 [Compound A, N-(2-(dimethylamino)ethyl)-1-(3-((4-((2-methyl-1H-indol-5-yl)oxy)pyrimidin-2-yl)amino)phenyl)-methanesulfonamide] as the compound, how does the pIC50 (VEGFR 1) read?
A: The pIC50 was 8.70.

Q: And the pIC50 (VEGFR 2)?
A: The pIC50 was 7.62.

Q: What about the pIC50 (VEGFR 3) of the same compound?
A: The pIC50 was 9.00.

Q: And the pIC50 (FGFR1)?
A: Its pIC50 is 7.82.

Q: What about the pIC50 (CSF1R) of the same compound?
A: The pIC50 was 8.40.

Q: And the pIC50 (TrkB)?
A: The pIC50 was 7.39.

Q: What about the pIC50 (FLT3) of the same compound?
A: The pIC50 was 7.17.

Q: And the pIC50 (278 other kinases)?
A: Its pIC50 is under 6.82.

Q: What about the “IH (%)” value (Fms kinase; 0.0001 μM) of the same compound?
A: The value was −3%.

Q: And the “IH (%)” value (Fms kinase; 0.0003 μM)?
A: Its value is 3%.

Q: And the “IH (%)” value (Fms kinase; 0.001 μM)?
A: The value was 15%.

Q: And the “IH (%)” value (Fms kinase; 0.003 μM)?
A: Its value is 38%.

Q: And the “IH (%)” value (Fms kinase; 0.01 μM)?
A: The value was 72%.

Q: What about the “IH (%)” value (Fms kinase; 0.03 μM) of the same compound?
A: Its value is 86%.

Q: And the “IH (%)” value (Fms kinase; 0.1 μM)?
A: Its value is 94%.

Q: What about the “IH (%)” value (Fms kinase; 0.3 μM) of the same compound?
A: The value was 98%.

Q: And the “IH (%)” value (Fms kinase; 1 μM)?
A: The value was 98%.

Q: What about the “MTD (maximum tolerated dose)” value [1] of the same compound?
A: Its value is “not reached”.

Q: And the “patients with confirmed PR” value (advanced solid tumors)?
A: Its value is “nine”.

Q: With CO[C@H]1C[C@@H]2CC[C@@H](C)[C@@](O)(O2)C(=O)C(=O)N2CCCC[C@H]2C(=O)O[C@H]([C@H](C)C[C@@H]2CC[C@@H](OCCO)[C@H](OC)C2)CC(=O)[C@H](C)/C=C(\C)[C@@H](O)[C@@H](OC)C(=O)[C@H](C)C[C@H](C)/C=C/C=C/C=C/1C [everolimus] as the compound, how does the ORR (NET; GI and lung NET) read?
A: Its ORR is 2%.

Q: And the ORR (NET; pancreatic NET)?
A: The ORR was 5%.

Q: And the “median PFS” value (NET; phase 3 trials)?
A: The value was “approximately 11 months”.
